Source: patent publication US20250185656A1, “PIPERIDINONE DERIVATIVE OR SALT THEREOF, HARMFUL ORGANISM CONTROL AGENT CONTAINING SAID COMPOUND, AND METHOD FOR USING SAME” (ADEKA Corporation, priority 2022, published 2025)

Legend:
[1] = tested on: Frankliniella occidentalis; assay: Insecticidal test against Frankliniella occidentalis; conditions: in Phaseolus vulgaris, 96 h, read-out: corrected mortality, rating of assessment
Text: Insecticidal Test Against Frankliniella occidentalis
Female adults of Frankliniella occidentalis were inoculated onto Phaseolus vulgaris leaf pieces, and after allowing them to lay eggs for one day, the female adults were removed. […] Four days after the treatment, the number of surviving larvae of this species was examined. […] In duplicate.

[2] = tested on: Plutella xylostella; assay: Insecticidal test against Plutella xylostella; conditions: in Brassica rapa, 144 h, read-out: corrected mortality, rating of assessment
Text: Insecticidal Test Against Plutella xylostella
Six days after the immersion in the drug solution, the number of surviving insects was examined. […] In triplicate using 10 per plot.

[3] = tested on: L-1 stage larvae of Dirofilaria immitis; assay: Evaluation test of influence on the movement of Dirofilaria immitis larvae; conditions: 72 h, read-out: corrected movement inhibition rate

In the case of `CC(C)(C)OC(=O)N1CC(=O)C(C(=O)Nc2ccc(F)cc2)=C(O)C1` [Compound 1-36, tertiary-butyl 4-((4-fluorophenyl)carbamoyl)-5-hydroxy-3-oxo-3,6-dihydropyridine-1 (2H)-carboxylate], the mortality at 500 ppm [1] is reported as 100%, the mortality at 500 ppm [2] is reported as 100% and the inhibition at 50 ppm [3] is reported as ≥ 50%.
`O=C1CN(c2ncc(Br)cn2)CC(O)=C1C(=O)Nc1ccc(F)cc1` [Compound 1-65, 1-(5-bromopyrimidin-2-yl)-N-(4-fluorophenyl)-5-hydroxy-3-oxo-1,2,3,6-tetrahydropyridine-4-carboxamide] gave a mortality at 500 ppm [1] of 100% and a mortality at 500 ppm [2] of 100%.
In the case of `CC(C)(C)OC(=O)N1CC(=O)C(C(=S)Nc2ccc(Cl)cc2)=C(O)C1` [Compound 2-13, tertiary-butyl 4-((4-chlorophenyl)carbamothioyl)-5-hydroxy-3-oxo-3,6-dihydropyridine-1 (2H)-carboxylate], the mortality at 500 ppm [2] is reported as 100%.
`N#Cc1ccc(N2CC(O)=C(C(=O)Nc3ccc(F)cc3)C(=O)O2)cc1` [Compound 3-1, 2-(4-cyanophenyl)-N-(4-fluorophenyl)-4-hydroxy-6-oxo-3,6-dihydro-2H-1,2-oxazin-5-carboxamide] showed a mortality at 500 ppm [2] of 100%.
